Measured values published in ChEMBL document CHEMBL1201862, “PubChem BioAssay data set” (2004).
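Five concentrations, 48 hours, 96-well plates. Here, GI50 denotes the concentration required for 50% inhibition of growth.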 Activity calls are given as the source filed them. Cut-off read from the data, not from the text of the source: active = GI50 up to about 1.1 µM and inactive = higher.

Experiments:
Assay in all cases: inhibition of tumour cell growth, NCI panel, 48 h
[1] = system: 786-0
[2] = system: CAKI-1
[3] = system: COLO 205
[4] = system: HCT-15
[5] = system: HL-60
[6] = system: Hs-578T
[7] = system: LOX IMVI
[8] = system: Malme-3M
[9] = system: NCI-H460
[10] = system: NCI/ADR-RES
[11] = system: RPMI-8226
[12] = system: SK-MEL-28
[13] = system: SK-OV-3
[14] = system: UO-31
[15] = system: A549
[16] = system: SF-295
[17] = system: SK-MEL-2
[18] = system: SK-MEL-5
[19] = system: NCI-H226

Measured: GI50

Cc1ccccc1Nc1nc(NNC(=O)Cc2ccccc2)nc(NNC(=O)c2ccncc2)n1
inactive: [1] > 10 µM | [2] > 10 µM | [3] > 10 µM | [5] > 10 µM | [6] > 10 µM | [7] > 10 µM | [8] > 10 µM | [9] > 10 µM | [10] > 10 µM | [11] > 10 µM | [12] > 10 µM | [13] > 10 µM | [14] > 10 µM
> 10 µM: [4]

COc1c(CC=C(C)C)c(O)c(C(CC(C)C)c2c(O)c3c(c(C(C)=O)c2O)OC(C(C)(C)O)C3)c(O)c1C(C)=O (stereo unspecified)
3.64 µM: [4]
inactive: [1] 5.65 µM | [15] 4.21 µM | [2] 3.93 µM | [3] 3.21 µM | [5] 3.52 µM | [6] 3.94 µM | [7] 4.78 µM | [8] 3.91 µM | [10] 3.44 µM | [16] 4.55 µM | [12] 6.12 µM | [17] 4.15 µM | [18] 2.22 µM | [13] 5.46 µM | [14] 4.32 µM
active: [11] 0.968 µM

CSc1ncnc2c1ncn2C1OC(CO)C(O)OC1O (stereo unspecified)
active: [1] 0.785 µM | [15] 0.662 µM | [7] 0.361 µM | [9] 0.424 µM | [11] 1.06 µM
inactive: [2] 2.58 µM | [3] 1.8 µM | [5] 1.97 µM | [6] 20.9 µM | [8] 14 µM | [10] 2.56 µM | [16] 13.6 µM | [12] 13.7 µM | [17] 2.76 µM | [18] 3.73 µM | [13] 20 µM | [14] 1.79 µM
0.506 µM: [4]

Cc1cn(CCCCOC(=O)NC(CCCNC(N)=O)C(=O)O)c(=O)[nH]c1=O (stereo unspecified)
inactive: [1] > 100 µM | [15] > 100 µM | [2] > 100 µM | [3] > 100 µM | [5] > 100 µM | [6] > 100 µM | [7] > 100 µM | [19] > 100 µM | [9] > 100 µM | [10] > 100 µM | [11] > 100 µM | [16] > 100 µM | [12] > 100 µM | [17] > 100 µM | [13] > 100 µM | [14] > 100 µM
> 100 µM: [4]

COc1ccc(CCNC(=O)Cc2ccccc2CCO)cc1OC
14.9 µM: [4]
inactive: [1] > 100 µM | [15] > 100 µM | [2] > 100 µM | [3] > 100 µM | [5] > 100 µM | [6] > 100 µM | [19] > 100 µM | [9] > 100 µM | [10] > 100 µM | [11] > 100 µM | [16] > 100 µM | [12] 52.7 µM | [17] > 100 µM | [18] > 100 µM | [13] > 100 µM | [14] > 100 µM

O=C(/C=C/c1ccc(O)c(-c2cc(C(=O)/C=C/c3ccc(O)cc3)c(O)cc2O)c1)c1ccc(O)cc1O [RHUSCHALCONE VI]
> 50 µM: [4]
inactive: [1] 47.6 µM | [15] > 50 µM | [2] > 50 µM | [3] 10.5 µM | [5] 17.3 µM | [6] 30 µM | [7] 14.5 µM | [8] 22.1 µM | [9] > 50 µM | [10] > 50 µM | [11] 18.6 µM | [16] 37.5 µM | [12] 10.4 µM | [17] 20.7 µM | [18] 27.8 µM | [13] 16.1 µM | [14] > 50 µM
